Patent US10081615B2, “Sulfamate derivative compounds for use in treating or alleviating pain” (Bio-Pharm Solutions Co., Ltd., priority 2013, dated 2018)
Where two headings read alike, the source gives them in different places.

What was measured:
CFA-induced pain model = assay: Antiallodynic activity on Complete Freund's Adjuvant (CFA)-induced inflammatory pain model (von Frey); type: in vivo, Sprague-Dawley rats; conditions: ip
SNL model = assay: Antiallodynic activity in the Chung model (SNL, Spinal Nerve Ligation; von Frey); type: in vivo, Sprague-Dawley rats
[1] = Rattus norvegicus, 0.5 h, read-out: CFA model: ED50 mg/kg
[2] = Rattus norvegicus, po, 1 h, read-out: SNL model: ED50 mg/kg

## CC1(C)Oc2ccccc2[C@@H](COS(N)(=O)=O)O1 [Example 2, ((S)-2,2-dimethyl-4H-benzo[d][1,3]dioxin-4-yl)methyl sulfamate]
CFA-induced pain model; rat, intraperitoneal, 0.5 h, read-out: CFA model: ED50
  ED50: 18.8 mg/kg
SNL model; rat, oral, 1 h, read-out: SNL model: ED50
  ED50: 4.5 mg/kg

## CC1(C)Oc2ccccc2[C@H](COS([NH-])(=O)=O)O1.[K+] [Example 70, Potassium (R)-(((2,2-dimethyl-4H-benzo[d][1,3]dioxin-4-yl)methoxy)sulfonyl)amide]
CFA-induced pain model; Rattus norvegicus, 0.5 h, read-out: CFA model: effect (%) compared to control
  response vs control in vivo at 25 mg/kg: 10.5%
SNL model; Rattus norvegicus, po, 1 h, read-out: SNL model: effect (%) compared to control, rat, oral, 3.5 mg/kg administered, 1 h
  response vs control in vivo at 3.5 mg/kg: 46.7%

## [NH-]S(=O)(=O)OC[C@H]1OC2(CCCC2)Oc2ccccc21.[Na+] [Example 65, Sodium (S)-(((4H-spiro[benzo[d][1,3]dioxine-2,1′-cyclopentan]-4-yl)methoxy)sulfonyl)amide]
CFA-induced pain model; [1]
  ED50: 89.1 mg/kg
SNL model; Rattus norvegicus, po, 0.5 h, read-out: SNL model: ED50 mg/kg
  ED50: 3.4 mg/kg

## CC1(C)Oc2ccccc2[C@H](COS([NH-])(=O)=O)O1.[Na+] [Example 58, Sodium (R)-(((2,2-dimethyl-4H-benzo[d][1,3]dioxin-4-yl)methoxy)sulfonyl)amide Trihydrate]
CFA-induced pain model; [1]
  ED50: 23.3 mg/kg
SNL model; [2]
  ED50: 8.9 mg/kg

## CC1(C)Oc2ccccc2C(COS([NH-])(=O)=O)O1.[Na+] (stereo not shown) [Example 60, Sodium (((2,2-dimethyl-4H-benzo[d][1,3]dioxin-4-yl)methoxy)sulfonyl)amide Trihydrate]
CFA-induced pain model; Rattus norvegicus, 1 h, read-out: CFA model: ED50 mg/kg
  ED50: 25 mg/kg
SNL model; [2]
  ED50: 3.5 mg/kg
